Laboratory results published in publication PMC10803328 (Scientific Reports, 2024).
Values joined by “and” are separate entries in the source; they are usually repeats but may differ in a detail not shown here. Equal entries are not always repeated.

Tests used:
[1] = In vitro stability in rat brain homogenate, whole blood and plasma; assay type: in vitro ADME
Description: In vitro stability was calculated by dividing the relative composition of the blood or brain homogenate determined with radio-HPLC by the initial radiochemical purity of the radioligand. […] The mixture was incubated at room temperature for 10 min and then processed exactly as described previously. The ultrafiltration components that contained high radioactivity were allowed time for radioactivity decay to within the optimal range of the γ-counter before they were counted again.
Five milliliters of anticoagulated blood (STD-A) and brain (1.8 g) were harvested from a wild-type rat (~ 450 g) and used in the in vitro assays. The brains were immediately weighed and homogenized with twice their weights (3.6 mL) of ice cold 0.9% NaCl solution. Plasmas were separated from whole blood via centrifugation. […] Following incubation, aliquots (450 µL) were removed for radio-analysis and processed as detailed above for radio-HPLC analysis.
Anticoagulated blood (STD-A; 5 mL) and brain (1.8 g) were harvested from a wild-type rat (~ 450 g) and used for the in vitro assays. The brains were immediately weighed and homogenized with twice their weights (3.6 mL) of ice-cold 0.9% saline. Plasma was separated from whole blood via centrifugation. […] Aliquots (450 µL) were then removed for radio analysis and processed as detailed above for radio-HPLC analysis.

[2] = Ex vivo measurements of radioactivity in rat brain and blood 100 min after i.v. injection
Description: Other experimental parameters that governed this study are listed in Supporting Information, Table S1. […] The rats were sacrificed via thoracotomy 100 min after radioligand injection. Anticoagulated blood was drawn from the myocardium followed by decapitation and harvesting of the brain. Each brain was removed, weighed, and immediately subjected to radio analysis after counting its concomitant radioactivity. Whole blood samples were removed and centrifuged to separate the plasma. Whole blood (300 µL each) and plasma samples (300 µL each) were also quantified for radioactivity in an automatic γ-counter (model 2480 Wizard 2; Perkin-Elmer) with an electronic window set at 360–1800 keV (counting efficiency, 51.84%). Briefly, plasma samples (~ 450 µL) were deproteinated with acetonitrile treatment (720 µL). The radioactivity of various plasma and brain tissues were counted in the γ-counter. Brain tissues were then homogenized in acetonitrile (1.0 mL) using a handheld tissue Tearor (model 985-370; BioSpec Products Inc; Bartlesville, OK), followed by a second homogenization in water (1.0 mL). The homogenates were counted in the γ-counter to calculate the percentage recovery of radioactivity in the acetonitrile extracts. Corrections of all tissue assays for physical decay were made with a half-life of 20.385 min. The homogenates were then centrifuged at 10,000g for 2 min. The clear supernatants were injected onto the HPLC column through nylon filters. For each sample, radioactivity in the resulting precipitate was used to calculate the percent recovery of activity into the acetonitrile supernatant.

[3] = in vitro incubation at 37 °C, rat
[4] = Rat-3, blocked with uPSEM792, 100 min
[5] = Rat-3, blocked with uPSEM792 i.v. 15 min before radioligand, 100 min
[6] = baseline rats (Rat-1, Rat-2), 100 min
[7] = baseline rats (Rat-1, Rat-2), 100 min after injection
[8] = rat, ex vivo, 100 min after i.v. injection, HPLC

## [11CH3]n1c(=O)cnc2cc3c(cc21)C1CNCC3C1 (centres unmarked) [[^11C]uPSEM792]
[1]; 30 min at 37 °C
  in vitro stability in homogenized non-perfused rat brain: 94%
  in vitro stability in rat plasma: 85.4%
  in vitro stability in rat whole blood: 83.8%
[1]; in vitro incubation at 37 °C
  HPLC Composition (%), in vitro fresh rat brain: 92%
[1]; [3]
  HPLC Composition (%), in vitro plasma: 83%
  HPLC Composition (%), in vitro whole blood: 82%
[2]; [4]
  Ex vivo brain: 0.72 nM
  Ex vivo brain (SUV): 0.401 SUV
  Ex vivo plasma parent (SUV): 0.064 SUV
  Ex vivo whole blood (SUV): 0.163 SUV
[2]; [5]
  HPLC Composition (%), ex vivo brain: 68.3%
  HPLC Composition (%), ex vivo plasma: 37.1%
[2]; [6]
  Ex vivo brain: 0.68 nM and 0.83 nM
  Ex vivo brain (SUV): 0.407 SUV and 0.468 SUV
  Ex vivo plasma parent (SUV): 0.063 SUV and 0.064 SUV
  Ex vivo whole blood (SUV): 0.141 SUV and 0.163 SUV
[2]; [7]
  HPLC Composition (%), ex vivo brain: 78.3% and 75.6%
  HPLC Composition (%), ex vivo plasma: 43.0% and 37.9%
[2]; ex vivo, 100 min after i.v. injection
  total radioactivity concentration in rat brain: ~ 0.4 SUV
[2]; male, brain and plasma, intravenous, rat, 100 min, read-out: fold lower concentration of unchanged radioligand in plasma than in brain
  Kp at 100 min: 6.7
[2]; rat, 100 min, n = 3
  concentration of unchanged radioligand in plasma: 0.064 ± 0.001 SUV
[2]; [8]
  unchanged radioligand as share of radioactivity in brain: 75.6%
  unchanged radioligand fraction of all radioactivity in plasma: 37.9%
